Source: patent US6489358B2, “Pharmaceutical compositions containing mupirocin” (Agis Industries (1983) Ltd., priority 2000, dated 2002)

Experiments:
[1] = Stability of 2% solution on heating (Δ % impurities); assay type: physicochemical
Method: The stability of Mupirocin Calcium amorphous in various acceptable pharmaceutical solvents was tested by heating a 2% solution to 80° C. for 24 hours or by heating it to 40° for 1 month. Bactroban cream was used as a reference.

[2] = Solubility of 2% solutions (calculated as free acid) in pharmaceutically acceptable hydrophilic solvents; assay type: physicochemical
Description: The following table presents the solubility of mupirocin calcium amorphous, compared to the solubility of the crystalline form, in various pharmaceutically acceptable hydrophilic solvents. We prepared 2% solutions (calculated as free acid), similar to the commercially available products.

[3] = from U.S Pat. No. 4,916,155; cited from earlier work
[4] = 2% solution in Propylene Glycol
[5] = 2% solution (calculated as free acid) in Glycerine
[6] = 2% solution (calculated as free acid) in Hexylene glycol

| Δ % impurities (after heating for 1 month at 40° C.) ([1]; 2% solution in Glycerine) [%] | Δ % impurities (after heating for 24 h at 80° C.) ([1]; 2% solution in Glycerine) [%] | Δ % impurities (after heating for 1 month at 40° C.) ([1]; 2% solution in Hexylene Glycol) [%] | Δ % impurities (after heating for 24 h at 80° C.) ([1]; 2% solution in Hexylene Glycol) [%] | Δ % impurities (after heating for 1 month at 40° C.) [1, 4] [%] | Δ % impurities (after heating for 24 h at 80° C.) [1, 4] [%] | Δ % impurities (after heating for 1 month at 40° C.) ([1]; 2% solution in Water) [%] | Δ % impurities (after heating for 24 h at 80° C.) ([1]; 2% solution in Water) [%] | Stability of the solution ([1]; solution in hexylene glycol) | Solubility (After heating for 30 min. at 70° C.) [2, 5] | Solubility (at room temperature) [2, 5] | Solubility (at room temperature) [2, 6] | Solubility (After heating for 30 min. at 70° C.) ([2]; 2% solution (calculated as free acid) in Glycerine, calcium dihydrate) | Solubility (After heating for 30 min. at 70° C.) [2, 6] | Solubility (at room temperature) ([2]; 2% solution (calculated as free acid) in Hexylene glycol, calcium dihydrate) | Solubility (at room temperature) ([2]; 2% solution (calculated as free acid) in Propylene glycol, calcium dihydrate) | Solubility (After heating for 30 min. at 70° C.) ([2]; 2% solution (calculated as free acid) in Water) | Solubility (at room temperature) ([2]; 2% solution (calculated as free acid) in Water, calcium dihydrate) | SMILES | Solubility in hydrophilic solvents compared with the crystalline form ([2]; hydrophilic solvents) | Solubility in water [3] |
| --- | --- | --- | --- | --- | --- | --- | --- | --- | --- | --- | --- | --- | --- | --- | --- | --- | --- | --- | --- | --- |
| 29.2 | 29.4 | 1.5 | 2 | 7.5 | 8.7 | 36.7 | 36.4 | good stability | Soluble | Not soluble | Soluble | – | – | – | – | – | – | C/C(=C\C(=O)OCCCCCCCCC(=O)[O-])C[C@@H]1OC[C@H](C[C@@H]2O[C@H]2[C@@H](C)[C@H](C)O)[C@@H](O)[C@H]1O.C/C(=C\C(=O)OCCCCCCCCC(=O)[O-])C[C@@H]1OC[C@H](C[C@@H]2O[C@H]2[C@@H](C)[C@H](C)O)[C@@H](O)[C@H]1O.O.O.[Ca+2] [Mupirocin Ca amorphous, amorphous calcium mupirocin] | much more soluble in hydrophilic solvents | – |
| – | – | – | – | – | – | – | – | – | – | – | – | Partially soluble | Not soluble | Not soluble | Soluble | Not soluble | Not soluble | C/C(=C\C(=O)OCCCCCCCCC(=O)[O-])C[C@@H]1OC[C@H](C[C@@H]2O[C@H]2[C@@H](C)[C@H](C)O)[C@@H](O)[C@H]1O.C/C(=C\C(=O)OCCCCCCCCC(=O)[O-])C[C@@H]1OC[C@H](C[C@@H]2O[C@H]2[C@@H](C)[C@H](C)O)[C@@H](O)[C@H]1O.O.O.[Ca+2] [Mupirocin Ca crystalline, crystalline Mupirocin calcium dihydrate] | – | poor solubility in water |
